Measured values reported in EP1007530B1, “6-O-SUBSTITUTED ERYTHROMYCIN COMPOUNDS AND METHOD FOR MAKING SAME” (ABBOTT LABORATORIES, priority 1996, dated 1997).
≈ marks a conversion by molar mass, not a printed value.

Legend:
Assay in all cases: In vitro assay of antibacterial activity (agar dilution MIC)
Type in all cases: cell-based
[1] = tested on: Actinetobacter calcoaceticus CMX 669; conditions: BHI agar, 35-37 °C, 20 to 24 hours, unit assumed
Procedure: (§1) Representative compounds of the present invention were assayed in vitro for antibacterial activity as follows: Twelve petri dishes containing successive aqueous dilutions of the test compound mixed with 10 mL of sterilized Brain Heart Infusion (BHI) agar (Difco 0418-01-5) were prepared. Each plate was inoculated with 1:100 (or 1:10 for slow-growing strains, such as Micrococcus and Streptococcus) dilutions of up to 32 different microorganisms, using a Steers replicator block. The inoculated plates were incubated at 35-37 °C for 20 to 24 hours, In addition, a control plate, using BHI agar containing no test compound, was prepared and incubated at the beginning and end of each test.
(§2) An additional plate containing a compound having known susceptibility patterns for the organisms being tested and belonging to the same antibiotic class as the test compound was also prepared and incubated as a further control, as well as to provide test-to-test comparability.
(§3) After incubation, each plate was visually inspected. The minimum inhibitory concentration (MIC) was defined as the lowest concentration of drug yielding no growth, a slight haze, or sparsely isolated colonies on the inoculum spot as compared to the growth control. […]

Escherichia coli H560 = conditions: BHI agar, 35-37 °C, 20 to 24 hours, unit assumed
Procedure: as §1
as §2, with “comparability. Erythromycin A was used for this purpose.” for “comparability.”
as §3

Pseudomonas capacia 2961 = conditions: BHI agar, 35-37 °C, 20 to 24 hours, in µg/mL (unit assumed)
Procedure: as §1
as §2, with “comparability. Erythromycin A was used for this purpose.” for “comparability.”
as §3

[2] = tested on: Enterobacter aerogenes ATCC 13048; conditions: BHI agar, 35-37 °C, 20 to 24 hours, unit assumed
Procedure: as §1
as §2, with “comparability. Erythromycin A was used for this purpose.” for “comparability.”
as §3

[3] = tested on: Staphylococcus aureus ATCC 6538P; conditions: BHI agar, 35-37 °C, 20 to 24 hours, unit assumed
Procedure: as §1
as §2, with “comparability. Erythromycin A was used for this purpose.” for “comparability.”
as §3

Candida albicans CCH 442 = conditions: BHI agar, 35-37 °C, 20 to 24 hours, unit assumed
Procedure: as §1
as §2, with “comparability. Erythromycin A was used for this purpose.” for “comparability.”
as §3

[4] = tested on: Staphylococcus aureus A-5278; conditions: BHI agar, 35-37 °C, 20 to 24 hours, unit assumed
Procedure: as §1
as §2, with “comparability. Erythromycin A was used for this purpose.” for “comparability.”
as §3

[5] = tested on: Pseudomonas aeruginosa BMH10; conditions: BHI agar, 35-37 °C, 20 to 24 hours, in µg/mL (unit assumed)
Procedure: as §1
as §2, with “comparability. Erythromycin A was used for this purpose.” for “comparability.”
as §3

[6] = tested on: Streptococcus bovis A-5169; conditions: BHI agar, 35-37 °C, 20 to 24 hours, unit assumed
Procedure: as §1
as §2, with “comparability. Erythromycin A was used for this purpose.” for “comparability.”
as §3

[7] = tested on: Pseudomonas aeruginosa DPHD-2862; conditions: BHI agar, 35-37 °C, 20 to 24 hours, unit assumed
Procedure: as §1
as §2, with “comparability. Erythromycin A was used for this purpose.” for “comparability.”
as §3

[8] = tested on: Pseudomonas aeruginosa K799/61; conditions: BHI agar, 35-37 °C, 20 to 24 hours, unit assumed
Procedure: as §1
as §2, with “comparability. Erythromycin A was used for this purpose.” for “comparability.”
as §3

[9] = tested on: Staphylococcus aureus CMX 642A; conditions: BHI agar, 35-37 °C, 20 to 24 hours, unit assumed
Procedure: as §1
as §2, with “comparability. Erythromycin A was used for this purpose.” for “comparability.”
as §3

[10] = tested on: Pseudomonas aeruginosa DPHD-5263; conditions: BHI agar, 35-37 °C, 20 to 24 hours, in µg/mL (unit assumed)
Procedure: as §1
as §2, with “comparability. Erythromycin A was used for this purpose.” for “comparability.”
as §3

[11] = tested on: Staphylococcus epidermidis 3519; conditions: BHI agar, 35-37 °C, 20 to 24 hours, unit assumed
Procedure: as §1
as §2, with “comparability. Erythromycin A was used for this purpose.” for “comparability.”
as §3

[12] = tested on: Staphylococcus aureus 1775; conditions: BHI agar, 35-37 °C, 20 to 24 hours, unit assumed
Procedure: as §1
as §2, with “comparability. Erythromycin A was used for this purpose.” for “comparability.”
as §3

[13] = tested on: Streptococcus pyogenes PIU 2548; conditions: BHI agar, 35-37 °C, 20 to 24 hours, unit assumed
Procedure: as §1
as §2, with “comparability. Erythromycin A was used for this purpose.” for “comparability.”
as §3

[14] = tested on: Streptococcus agalactiae CMX 508; conditions: BHI agar, 35-37 °C, 20 to 24 hours, unit assumed
Procedure: as §1
as §2, with “comparability. Erythromycin A was used for this purpose.” for “comparability.”
as §3

[15] = tested on: Micrococcus luteus ATCC 9341; conditions: BHI agar, 35-37 °C, 20 to 24 hours, unit assumed
Procedure: as §1
as §2, with “comparability. Erythromycin A was used for this purpose.” for “comparability.”
as §3

[16] = tested on: Micrococcus luteus ATCC 4698; conditions: BHI agar, 35-37 °C, 20 to 24 hours, unit assumed
Procedure: as §1
as §2, with “comparability. Erythromycin A was used for this purpose.” for “comparability.”
as §3

[17] = tested on: Staphylococcus aureus NCTC10649M; conditions: BHI agar, 35-37 °C, 20 to 24 hours, unit assumed
Procedure: as §1
as §2, with “comparability. Erythromycin A was used for this purpose.” for “comparability.”
as §3

[18] = tested on: Streptococcus pyogenes 930; conditions: BHI agar, 35-37 °C, 20 to 24 hours, unit assumed
Procedure: as §1
as §2, with “comparability. Erythromycin A was used for this purpose.” for “comparability.”
as §3

Escherichia coli JUHL = conditions: BHI agar, 35-37 °C, 20 to 24 hours, in µg/mL (unit assumed)
Procedure: as §1
as §2, with “comparability. Erythromycin A was used for this purpose.” for “comparability.”
as §3

Escherichia coli SS = conditions: BHI agar, 35-37 °C, 20 to 24 hours, unit assumed
Procedure: as §1
as §2, with “comparability. Erythromycin A was used for this purpose.” for “comparability.”
as §3

Escherichia coli DC-2 = conditions: BHI agar, 35-37 °C, 20 to 24 hours, unit assumed
Procedure: as §1
as §2, with “comparability. Erythromycin A was used for this purpose.” for “comparability.”
as §3

[19] = tested on: Mycobacterium smegmatis ATCC 114; conditions: BHI agar, 35-37 °C, 20 to 24 hours, unit assumed
Procedure: as §1
as §2, with “comparability. Erythromycin A was used for this purpose.” for “comparability.”
as §3

[20] = tested on: Enterococcus faecium ATCC 8043; conditions: BHI agar, 35-37 °C, 20 to 24 hours, unit assumed
Procedure: as §1
as §2, with “comparability. Erythromycin A was used for this purpose.” for “comparability.”
as §3

[21] = tested on: Pseudomonas aeruginosa K799/WT; conditions: BHI agar, 35-37 °C, 20 to 24 hours, unit assumed
Procedure: as §1
as §2, with “comparability. Erythromycin A was used for this purpose.” for “comparability.”
as §3

[22] = tested on: Pseudomonas aeruginosa 5007; conditions: BHI agar, 35-37 °C, 20 to 24 hours, unit assumed
Procedure: as §1
as §2, with “comparability. Erythromycin A was used for this purpose.” for “comparability.”
as §3

Escherichia coli KNK 437 = conditions: BHI agar, 35-37 °C, 20 to 24 hours, unit assumed
Procedure: as §1
as §2, with “comparability. Erythromycin A was used for this purpose.” for “comparability.”
as §3

[23] = tested on: Klebsiella pneumoniae ATCC 8045; conditions: BHI agar, 35-37 °C, 20 to 24 hours, unit assumed
Procedure: as §1
as §2, with “comparability. Erythromycin A was used for this purpose.” for “comparability.”
as §3

[24] = tested on: Staphylococcus aureus CMX 553; conditions: BHI agar, 35-37 °C, 20 to 24 hours, unit assumed
Procedure: as §1
as §2, with “comparability. Erythromycin A was used for this purpose.” for “comparability.”
as §3

[25] = tested on: Providencia struartii CMX 640; conditions: BHI agar, 35-37 °C, 20 to 24 hours, unit assumed
Procedure: as §1
as §2, with “comparability. Erythromycin A was used for this purpose.” for “comparability.”
as §3

[26] = tested on: Staphylococcus aureus A5177; conditions: BHI agar, 35-37 °C, 20 to 24 hours, unit assumed
Procedure: as §1, §2, §3

Molecule	MIC (Escherichia coli H560) [µg/mL]	MIC (Pseudomonas capacia 2961)	MIC [2] [µg/mL]	MIC [3] [µg/mL]	MIC (Candida albicans CCH 442) [µg/mL]	MIC [4] [µg/mL]	MIC [5]	MIC [6] [µg/mL]	MIC [7] [µg/mL]	MIC [8] [µg/mL]	MIC [9] [µg/mL]	MIC [10]	MIC [11] [µg/mL]	MIC [12] [µg/mL]	MIC [13] [µg/mL]	MIC [14] [µg/mL]	MIC [15] [µg/mL]	MIC [17] [µg/mL]	MIC [18] [µg/mL]	MIC (Escherichia coli JUHL)	further results
Compound of Formula (X): X is =N-OH, R is allyl [Example 1C]	100	> 100	> 100	0.78	> 100	> 100	> 100	0.01	> 100	6.2	1.56	> 100	0.39	> 100	3.1	0.01	0.1	0.78	> 100	100	MIC [1]: 50 µg/mL; MIC [16]: 1.56 µg/mL; MIC (Escherichia coli SS): 0.78 µg/mL; MIC (Escherichia coli DC-2): > 100 µg/mL; MIC [19]: 0.2 µg/mL; MIC [20]: 0.2 µg/mL; MIC [21]: > 100 µg/mL; MIC [22]: > 100 µg/mL; MIC (Escherichia coli KNK 437): > 100 µg/mL; MIC [23]: > 100 µg/mL; MIC [24]: 0.78 µg/mL; MIC [25]: > 100 µg/mL
CC[C@H]1OC(=O)[C@H](C)[C@@H](O[C@H]2C[C@@](C)(OC)[C@@H](O)[C@H](C)O2)[C@H](C)[C@@H](O[C@@H]2O[C@H](C)C[C@H](N(C)C)[C@H]2O)[C@](C)(OCC(C)=O)C[C@@H](C)C(=O)[C@H](C)[C@@H](O)[C@]1(C)O [Example 9, Compound of Formula (X); X is =O. R is 2-oxopropyl]	> 100	> 100	> 100	3.1	> 100	> 100	> 100	3.1	> 100	12.5	3.1	> 100	3.1	> 100	12.5	3.1	3.1	3.1	> 100	> 100	MIC [1]: 50 µg/mL; MIC [19]: 3.1 µg/mL; MIC [20]: 3.1 µg/mL; MIC [21]: > 100 µg/mL; MIC [22]: > 100 µg/mL; MIC (Escherichia coli KNK 437): > 100 µg/mL; MIC [23]: > 100 µg/mL; MIC [25]: > 100 µg/mL
CC[C@H]1OC(=O)[C@H](C)[C@@H](O[C@H]2C[C@@](C)(OC)[C@@H](O)[C@H](C)O2)[C@H](C)[C@@H](O[C@@H]2O[C@H](C)C[C@H](N(C)C)[C@H]2O)[C@](C)(O)C[C@@H](C)C(=O)[C@H](C)[C@@H](O)[C@]1(C)O [Ery. A, Erythromycin A, reference compound]	50 (≈ 68.1 µM)	> 100	> 100	0.2 (≈ 0.273 µM)	> 100	> 100	> 100	0.02 (≈ 0.0273 µM)	> 100	1.56 (≈ 2.13 µM)	0.39 (≈ 0.531 µM)	>100	0.39 (≈ 0.531 µM)	> 100	3.1 (≈ 4.22 µM)	0.05 (≈ 0.0681 µM)	0.05 (≈ 0.0681 µM)	0.39 (≈ 0.531 µM)	> 100	> 100	MIC [26]: 3.1 µg/mL (≈ 4.22 µM); MIC [16]: 0.2 µg/mL (≈ 0.273 µM); MIC (Escherichia coli SS): 0.78 µg/mL (≈ 1.06 µM); MIC (Escherichia coli DC-2): > 100 µg/mL; MIC [20]: 0.05 µg/mL (≈ 0.0681 µM); MIC [21]: 100 µg/mL (≈ 136 µM); MIC [22]: > 100 µg/mL; MIC (Escherichia coli KNK 437): 100 µg/mL (≈ 136 µM); MIC [23]: > 100 µg/mL; MIC [24]: 0.39 µg/mL (≈ 0.531 µM); MIC [25]: > 100 µg/mL
